In patent publication US20100137146A1, “Method of Screening Antibacterial Drug Compounds” (Temasek Lifesciences Laboratory, priority 2006, published 2010):

Tests used:
MreB = target: T1, MreB (Escherichia coli, UniProt P0A9X4); type: cell-based, E. coli
T1 construct: the protein is expressed as a fusion of the full-length bacterial protein with a reporter; expressed in transfected cells; host or cells: Schizosaccharomyces pombe (pREP42-gfp-mreB, nmt42 promoter)
Method: GFP-MreB and FtsZ-GFP were expressed in S. pombe by growing the transformed cultures in the absence of thiamine for 16-20 hours. In the case of fission-yeast temperature-sensitive mutants carrying the GFP-MreB plasmid, cultures were grown in the absence of thiamine for 25-30 hours at 24° C. to allow sufficient expression of the protein. However, prior to the formation of MreB-polymers, the cultures were shifted to restrictive temperatures for a period of 4 hours. The cells were subsequently fixed and stained for actin or tubulin.
The cells were-either fixed with formaldehyde 0.7%) or observed live under a fluorescence microscope. Inhibition of MreB polymerization was achieved by the addition of A22 at a final concentration of 50 μg/ml after 14-16 hours of growth in the absence of thiamine. Cultures were allowed to grow further for a period of 6-8 hours before washing of A22 for time-lapse microscopy. The cells were mounted onto agarose slides, and images were acquired at fixed time intervals. Immunofluorescence was carried out as described in Balasubramanian et al., Meth. Enzymol. 283:494-495, 1997.
Next, whether MreB polymerization in fission yeast was mechanistically related to its polymerization in bacteria was assessed. Studies in bacteria have shown that the small molecule A22 affects the polymerization and/or maintenance of MreB polymers. To test whether A22 prevents polymerization of MreB in fission yeast, cells were treated with A22 prior to the induction of MreB expression. Cells expressing GFP-MreB were treated with the MreB-inhibitor A22 (0 minute time point) at a concentration of 50 μg/ml. The drug then was washed out, and cells were imaged by time-lapse microscopy.
To this end, cells containing preformed MreB bundles were treated with A22.

GFP-MreB E143A = GFP-MreB E143A (Escherichia coli, UniProt P0A9X4, E143A); details: GFP-MreB E143A in wild type fission yeast
Description: (§1) The MreB ATPase mutants were generated by overlap PCR with the following mutagenic primers: MOH2516 and MOH2517 for E143A and MOH2512 and MOH2513 for D165E along with the above-mentioned end primers (MOH2413 and MOH2414). The GFP-MreB mutants were all cloned into pREP42. All plasmids and mutations were verified by sequencing.
(§2) In bacteria, mutations in the vicinity of the ATP binding pocket of MreB confer A22 resistance. […] Plasmids expressing GFP-MreB E143A (see Garner et al., Science 306:1021-1025, 2004) or D165E (see Kruse et al., EMBO J. 22:5283-5292, 2003) were introduced into wild type fission yeast cells. Cultures were grown in the absence of thiamine to induce the expression of GFP fusion proteins. […] See FIGS. 15A (E143A) and 15B (D165E).

GFP-MreB D165E = GFP-MreB D165E (Escherichia coli, UniProt P0A9X4, D165E); details: GFP-MreB D165E in wild type fission yeast
Description: as §1, §2

F-actin = target: T2, F-actin (Schizosaccharomyces pombe, UniProt P10989); test: F-actin staining (rhodamine-conjugated phalloidin) in S. pombe cells expressing GFP-MreB; type: cell-based; details: LatA 20 μg/ml for 10 minutes
T2 construct: endogenous in cells; host or cells: Schizosaccharomyces pombe cells expressing GFP-MreB
Method: S. pombe cells expressing GFP-MreB were fixed with methanol and incubated with tubulin (1:100) antibodies. Mouse secondary antibodies conjugated to Alexa-594™ were used at 1:400 for visualizing tubulin. For actin staining, cultures were fixed with formaldehyde (3.7%) and permeablized by using 1% Triton-X 100 in PBS. Rhodamine-conjugated phalloidin was used to visualize S. pombe actin. Latrunculin A (LatA) was added at a final concentration of 20 μg/ml for 10 minutes, and methyl 1-(butylcarbanoyl)-2-benzimidazolecarbamate (MBC) was added at a 25 μg/ml for 20 minutes. For methods, see Karagiannis et al., Mol. Biol. Cell 16:358-371, 2005 and Sawin et al., J. Cell Sci. 117:689-700, 2004, the disclosures of which are hereby incorporated by reference. For time-lapse imaging, LatA and MBC were included simultaneously in the agarose pads. […] Pictures were obtained with a CCD camera (CoolSnapHQ™, Photometrics™). The images were acquired and processed with Meta-morph™.
Studies therefore were performed to determine whether MreB assembly and maintenance was dependent on F-actin and microtubules. Cells were grown in the absence of thiamine to allow expression GFP-MreB. Cultures were then treated with LatA (20 μg/ml) for 10 minutes or methyl 1-butylcarbamoyl-2-benzimidazolecarbamate MBC (25 μg/ml) for 20 minutes to disrupt F-actin and microtubule, respectively. […]

T1 sequence (P0A9X4 whole entry, the tested form may be a part): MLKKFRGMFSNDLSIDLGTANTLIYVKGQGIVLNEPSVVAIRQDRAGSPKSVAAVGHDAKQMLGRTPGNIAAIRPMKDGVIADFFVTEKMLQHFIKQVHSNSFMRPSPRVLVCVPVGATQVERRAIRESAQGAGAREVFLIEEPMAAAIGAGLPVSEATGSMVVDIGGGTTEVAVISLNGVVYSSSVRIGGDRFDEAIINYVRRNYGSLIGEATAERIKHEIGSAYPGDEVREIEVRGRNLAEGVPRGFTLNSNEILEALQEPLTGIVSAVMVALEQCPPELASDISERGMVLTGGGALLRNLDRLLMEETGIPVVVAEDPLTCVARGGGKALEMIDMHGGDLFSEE
Chain of GFP-MreB E143A (P0A9X4 whole entry E143A): as the sequence (P0A9X4 whole entry, the tested form may be a part) above, with E143A counted along it
Chain of GFP-MreB D165E (P0A9X4 whole entry D165E): as the sequence (P0A9X4 whole entry, the tested form may be a part) above, with D165E counted along it

| Compound | MreB polymerization in fission yeast (MreB; A22 50 μg/ml, S. pombe cells expressing GFP-MreB, 0 minute time point before washout) | Reversibility of the effect on MreB polymerization (MreB; after removal of A22 (50 μg/ml), MreB filaments re-established at 20 minutes) | Severing and/or disassembly of preformed MreB bundles (MreB; cells with prominent GFP-MreB bundles cultured 1 hour with A22) | Structures assembled by MreB ATPase mutant, sensitivity to A22 (GFP-MreB E143A) | Structures assembled by MreB ATPase mutant, sensitivity to A22 (GFP-MreB D165E) | Maintenance of MreB bundles (MreB; LatA 20 μg/ml for 10 minutes) | MreB nucleation and assembly after A22 washout (MreB; simultaneous presence of LatA (20 μg/ml) and MBC (25 μg/ml) in agarose pads) | Effect on average growth rate of MreB bundles (MreB; simultaneous presence of LatA and MBC, rate without them 0.46±0.03 μm/min (n=44)) | Disruption of F-actin (F-actin) |
| --- | --- | --- | --- | --- | --- | --- | --- | --- | --- |
| N=C(N)SCc1ccc(Cl)c(Cl)c1 [A22] | did not exhibit MreB polymers | reversible | pre-existing bundles were unaffected | assembled similar structures both in the presence and absence of A22 | assembled similar structures both in the presence and absence of A22 | – | – | – | – |
| C/C1=C/C(=O)O[C@@H]2C[C@@H](CC[C@H](C)/C=C\C=C\CC1)O[C@@](O)([C@@H]1CSC(=O)N1)C2 [LatA, Latrunculin A] | – | – | – | – | – | remained unperturbed | MreB nucleated and assembled into polymers | did not vary significantly | completely disassembled |
